Experimental data reported in US10363235B2, “Compositions comprising 15-HEPE and methods of treating or preventing fibrosis using same” (Afimmune Limited, priority 2014, dated 2019).
Entries after “also recorded” stand apart in the source; their conditions may differ.

Legend:
[1] = 15-HEPE levels in tissues of dosed rats; format: in vivo; details: 500 mg/kg for 7 days, treated vs untreated control, FIG. 11
Experimental: Rats (n=5) were dosed with 15-HEPE (DS102) 500 mg/kg for 7 days and organs excised to analyse 15-HEPE levels in the tissues of treated vs untreated animals.

[2] = test system: Lung Fibroblasts from Idiopathic Pulmonary Fibrosis (IPF) patients; experiment: TGF-beta induced alpha-SMA production in IPF lung fibroblasts; format: cell-based, human; details: 100 ug/ml; 2 hours pretreatment, then TGF beta (20 ng/ml) for 48 hours; FIG. 10
Experimental: Lung Fibroblasts from Idiopathic Pulmonary Fibrosis (IPF) patients were plated at 10000 cells per well in their respective growth mediums and allowed to attach overnight. After attachment, the cells were pretreated with 15(S)-HEPE for 2 hours in their respective assay mediums. After 2 hours, the cells were then treated with compounds+/−TGF beta (20 ng/ml) for 48 hours. After 48 hours, the conditioned media was collected and frozen at −80° C. for future collagen analysis. After collection, the cells were stained for SMA I expression. The collagen ELISA was performed according to the manufacturer's instructions.

[3] = test system: mouse model of NAFLD; experiment: mouse model of NAFLD (streptozotocin plus high-fat diet), Example 1; format: in vivo, mice (C57/BL6); details: for fibrosis (histology, sirius red staining): compared to vehicle, FIGS. 7A-7D; for NAFLD Activity Score (NAS): FIGS. 8A-D
Experimental: The purpose of this study was to examine the effects of 15-HEPE and 15-HETrE compared to vehicle and to telmisartan in a mouse model of NAFLD.
C57/BL6 mice obtained from Charles River Laboratories were divided into 6 study groups as follows:
Group 1 (Vehicle): Twelve mice were each administered a single dose of steptozotocin after birth and fed a high-fat diet for four weeks. The mice were then fed vehicle in a volume of 10 mL/kg once daily from 5 to 12 weeks of age.
Group 2 (telmisartan): Twelve mice were each administered a single dose of steptozotocin after birth and fed a high-fat diet for four weeks. The mice were then fed telmisartan in an amount of 5 mg/kg once daily from 5 to 12 weeks of age.
Group 3 (15-HEPE, low dose): Twelve mice were each administered a single dose of steptozotocin after birth and fed a high-fat diet for four weeks. The mice were then fed 15-HEPE in an amount of 50 mg/kg once daily from 5 to 12 weeks of age.
Group 4 (15-HEPE, high dose): Twelve mice were each administered a single dose of steptozotocin after birth and fed a high-fat diet for four weeks. The mice were then fed 15-HEPE in an amount of 500 mg/kg once daily from 5 to 12 weeks of age.
Group 5 (15-HETrE, low dose): Twelve mice were each administered a single dose of steptozotocin after birth and fed a high-fat diet for four weeks. The mice were then fed 15-HETrE in an amount of 10 mg/kg once daily from 5 to 12 weeks of age.
Group 6 (15-HETrE, high dose): Twelve mice were administered a single dose of steptozotocin after birth and fed a high-fat diet for four weeks. The mice were then fed 15-HETrE in an amount of 100 mg/kg once daily from 5 to 12 weeks of age.
At 12 weeks of age, all mice were assessed for changes in: • serum biochemistry (e.g., ALT levels, LDL levels, VLDL levels, HDL levels, triglyceride levels, total cholesterol level), • fibrosis (e.g., histology using sirius red staining), and • NAFLD activity score (including, e.g., H&E staining histology). Results

[4] = test system: mouse model of non-alcoholic steatohepatitis (NASH); experiment: NASH mouse model (streptozotocin plus high fat diet), liver fibrosis, Example 2; format: in vivo, mice; details: 500 mg/kg orally once daily from 5 to 9 weeks of age; compared with EPA (500 mg/kg) or vehicle; FIG. 9
Experimental: Non-alcoholic steatohepatitis (NASH) was induced in mice by a single subcutaneous injection of 200 μg of streptozotocin (Sigma Aldrich) two days after birth and feeding with high fat diet (57 kcal % fat, CLEA Japan) after 4 weeks of age. After randomization, each mouse was orally administered vehicle, telmisartan (10 mg/kg), 15-HEPE (500 mg/kg) or EPA (500 mg/kg) once daily from 5 to 9 weeks of age. At the end of the 9th week, the mice were sacrificed and analyzed.

[5] = test system: Lung Fibroblasts from Idiopathic Pulmonary Fibrosis (IPF) patients; experiment: cytotoxicity in IPF lung fibroblasts; format: cell-based, human; details: treatment for 48 hours
[6] = telmisartan 5 mg/kg once daily from 5 to 12 weeks of age, vs vehicle

## CCC=CCC(O)C=CC=CCC=CCC=CCCCC(=O)O (stereo not shown) [15-HEPE, 15-Hydroxy-eicosa-5,8,11,13,17-pentaenoic acid]
[1]
  15-HEPE level in the liver: significantly more
  15-HEPE level in the lung: significantly more
[2]
  TGF-beta induced alpha-SMA production: inhibited; also recorded: inhibition
[3]; high-dose 15-HEPE 500 mg/kg once daily from 5 to 12 weeks of age, equivalent to telmisartan
  fibrosis (histology, sirius red staining): statistically equivalent low amount of fibrosis
[3]; high-dose 15-HEPE 500 mg/kg once daily from 5 to 12 weeks of age, vs high-dose 15-HETrE group (100 mg/kg), FIG. 6
  plasma ALT levels: significantly lower
[3]; high-dose 15-HEPE 500 mg/kg once daily from 5 to 12 weeks of age, vs placebo (vehicle), p<0.01
  NAFLD Activity Score (NAS): significantly lower
[3]; high-dose 15-HEPE 500 mg/kg once daily from 5 to 12 weeks of age, vs vehicle, FIG. 6
  plasma ALT levels: significantly lower
[3]; low-dose 15-HEPE 50 mg/kg once daily from 5 to 12 weeks of age, vs vehicle, FIG. 4
  Total cholesterol levels: significantly lower
[4]
  treating and/or preventing liver fibrosis: more effective
[5]
  cytotoxicity: No cytotoxicity

## CCCCCC(O)/C=C/C=C\C/C=C\CCCCCCC(=O)O (stereo not shown) [15-HETrE, 15-hydroxyeicosa-8(Z),11(Z),13(E)-trienoic acid]
[3]; low-dose 15-HETrE 10 mg/kg once daily from 5 to 12 weeks of age, vs vehicle (Mann Whitney), FIG. 1
  serum triglycerides: significantly lower
[3]; low-dose 15-HETrE 10 mg/kg once daily from 5 to 12 weeks of age, vs vehicle, FIG. 2
  VLDL levels: significantly lower
[3]; low-dose 15-HETrE 10 mg/kg once daily from 5 to 12 weeks of age, vs vehicle, FIG. 3
  LDL levels: significantly lower
[3]; low-dose 15-HETrE 10 mg/kg once daily from 5 to 12 weeks of age, vs vehicle, FIG. 4
  Total cholesterol levels: significantly lower

## CCCc1nc2c(C)cc(-c3nc4ccccc4n3C)cc2n1Cc1ccc(-c2ccccc2C(=O)O)cc1 [telmisartan, 2-(4-{[4-Methyl-6-(1-methyl-1H-1,3-benzodiazol-2-yl)-2-propyl-1H-1,3-benzodiazol-1-yl]methyl}phenyl)benzoic acid]
[3]; telmisartan 5 mg/kg once daily from 5 to 12 weeks of age
  fibrosis (histology, sirius red staining): low amount of fibrosis
[3]; [6]
  Hydroxyproline levels: did not show statistically significant reductions
  LDL levels: did not show statistically significant reductions
  Total cholesterol levels: did not show statistically significant reductions
  VLDL levels: did not show statistically significant reductions
  plasma ALT levels: did not show statistically significant reductions
  serum triglycerides: did not show statistically significant reductions
[3]; telmisartan 5 mg/kg once daily from 5 to 12 weeks of age, vs vehicle, p<0.001
  NAFLD Activity Score (NAS): significantly lower
